Measured values from patent US7871765B2, “Composition having antitumor effect” (priority 2004, dated 2011).

Assays:
MB49 cells [1] = assay: MB49 cell-inoculated mouse model (intradermal), tumor volume; assay type: in vivo
Source text: This experimental model can be prepared in accordance with, for example, a method described in Anticancer Res., 2004, 24(4):2225-30, and the like.

[2] = test system: MB49 (transitional epithelial cancer) cells; assay: Adriamycin sensitivity of MB49 cells, WST-8 assay; assay type: cell-based; settings: 48 hours
Description: After 48 hours of cultivation, the supernatant was removed by WST-8 assay, 100 μl of a cell counting kit solution, previously diluted 10 fold with RPMI medium, was added, and the plate was allowed to stand at 37° C. for 1.5 hours. Absorbance at 450 nm was determined using a microplate reader. Assuming the absorbance of a sample of MB49 cells only to be 100% survival rate, the survival rates at various concentrations were calculated.

MB49 cells [3] = assay: Concurrent administration of MB49 cells, HVJ-E and ADM into the bladder; assay type: in vivo, mouse; settings: two weeks
Description: Three 6-week-old female C57BL/6Cr Slc mice per group were anesthetized by administering a mixture of 90 μl of ketamine (50 mg) and 10 μl of xylazine (2% solution) to the left femoral muscle, a 24G catheter was inserted into the bladder, 100 μl of each of the following sample solutions was administered using a 1-ml syringe, and the catheter was indwelled for 1 hour.
The groups established are as follows:
The number of MB49 cells administered was 5×10^6 cells. After adjustment to a final volume of 100 μl, each solution was administered into the bladder. Two weeks later, the bladder was extirpated, and sections were prepared and stained with HE.

[4] = test system: CT-26 cells derived from mouse colon cancer; assay: Antitumor effect on transplanted CT-26 tumors in cancer-bearing mice (tumor volume, remission); assay type: in vivo; settings: Study 1, 21 days after treatment, single dose; for mean tumor volume: mean of five animals, BLM 6.5 μg/tumor intratumoral, CDDP 0.2 mg/body i.p.
Description: CT-26 cells derived from mouse colon cancer (5×10^6 cells) were intradermally transplanted to the backs of 8-week-old male BALB/cAnNCrj mice to yield cancer-bearing mice. Five days after the transplantation, 0.2 mg/body Platocin Injection (cisplatin, CDDP) was intraperitoneally administered to animals wherein the tumor diameter (major diameter) had reached about 5 mm. Following this administration, HVJ-E containing or not containing an anticancer drug (bleomycin hydrochloride [BLM]: Nippon Kayaku Co., Ltd.) and the like were administered into the tumor in a single dose (on the day after administration of cisplatin) or in multiple doses (3 times: 1, 5, and 8 days after administration of cisplatin). Tumor diameters, survival curves, and immune reactions in the tumor tissue were evaluated.
(Study 1) The groups described below were established, and the antitumor effects of treatment for transplanted tumors was evaluated.
For modeling, (1) a control group, (2) an HVJ-E group, (3) a BLM-alone group, (4) an HVJ-E/BLM group, (5) a CDDP-alone group, and (6) a CDDP HVJ-E/BLM single dosing group were established; tumor volumes were measured 21 days after each treatment, and the influence on the antitumor effect was examined.
(Study 2) In an attempt to further enhance the antitumor effect of the (single) treatment by single dosing of CDDP HVJ-E/BLM given in Study 1, HVJ-E/BLM was administered in multiple doses (3 times) (Study 2-1). […] (Study 2-1)
Tumor volumes were examined 21 days after treatment for (1) a control group, (2) a CDDP HVJ-E/BLM single dosing group (single treatment), and (3) a CDDP HVJ-E/BLM 3 dosing group.
After completion of the quarantine and habituation, animals were shaven with clippers. The tumor cell suspension at 100 μL/site (5×10^6 cells/body) was administered intradermally to the backs of 59 mice using a disposable syringe and injection needle (26 G). On the day following the administration, the same administration was performed on 57 animals (non-recipient animals).
Tumor diameters (major diameter, minor diameter) were measured 5 days after transplantation (not measured after grouping). Five days later, animals having a tumor diameter (major diameter) of about 5 mm were grouped by stratified randomization to obtain a nearly uniform distribution of mean tumor diameters (major diameters).
For the CDDP administration group, a single-dose intraperitoneal administration (1000 μl) was performed using a disposable injection syringe and injection needle. […]
The day of administration was taken as Day 0 after administration. On Days 3, 6, 9, 12, 15, 18, and 21 after administration, all animals had their tumor diameters measured, and tumor volume (major diameter×minor diameter×minor diameter÷2) was calculated.

CT-26 cells = assay: CTL assay using radiolabeled chromium with splenocytes of treated mice; assay type: cell-based, mouse; settings: E/T ratio 80; CT-26 inoculated mice; HVJ-E/BLM 3 dosing where given
Description: To determine whether or not the antitumor immunity effect observed in the previous study was due to the induction of CT26 cell-specific antitumor immunity, splenocytes recovered from animals were stimulated with CT26 cells, and a CTL assay using radiolabeled chromium was performed to determine whether or not CT26-specific antitumor immunity had been induced.
In this study, (1) a CT-26 cell non-inoculation group, (2) a CT-26 cell-alone inoculation group, (3) a CT-26 cell inoculation+CDDP administration group, and (4) a CT-26 cell inoculation+CDDP+HVJ-E/BLM 3 dosing group were established and tested.
The spleen was extirpated from each anesthetized animal and recovered in a Petri dish (6 cm in diameter) containing 3 ml of RPMI solution. The spleen tissue was squashed between the frosted portions of two sterile glass slides, splenocytes were separated from the coat to the maximum possible extent, and the debris was removed through meshes. After 7 ml of PRMI solution was added, the cells were centrifuged at 1200 rpm for 10 minutes, and the supernatant was removed. […] The cells obtained from this operation were counted. […]
Actual CTL assay was performed with the ratio of effector cells (E) and target cells (T), E/T ratio, set at 80, […] 40, 20, 10, and 5. In this operation, 100 μl of target cells (1×10^5 cells/ml) were added to make a total quantity of 200 μl. […]

CT-26 tumor tissue = assay: HE and CD-4/CD-8 immunohistological staining of tumor tissue; assay type: in vivo, mouse; settings: 9 days after CDDP administration; single dosing
Source text: (Study 5) To evaluate the infiltration of CD-4, CD-8, neutrophils, macrophage and the like in the tumor tissues examined in the study of the antitumor effect of the antitumor immunity, the following test groups were established, and tumor tissues were extirpated 9 days after administration of CDDP and subjected to immunohistological staining.
2-9) The tumor tissue was frozen in liquid nitrogen in preparation for staining the tumor tissue. The tumor tissue was cut into sections 8 μm in thickness using a cryostat. The tissue sections were fixed in −20° C. cold acetone for 15 minutes. After the sections were washed with water, endogenous avidin-biotin blocking was performed, and the sections were washed with water. The sample was reacted with normal rabbit serum and 50-fold diluted primary antibody [anti-mouse CD8a rat antibody (Ly-Z; Pharmingen) or anti-mouse CD4a rat antibody (L3T4; Pharmingen)] at 4° C. overnight. After the sample was washed with 7.5 mM Tris buffer solution (pH 7.5), it was reacted with 300-fold diluted anti-rat biotin-labeled rabbit Ig (DAKO) for 30 minutes. After the sample was washed with 9.5 mM Tris buffer solution (pH 7.5), it was reacted with 100-fold diluted streptoavidin for 30 minutes. After the sample was washed with 11.5 mM Tris buffer solution (pH 7.5), a color was developed with Fast Red. […]

[5] = test system: CT-26 mouse colon cancer cells; assay: Antitumor effect of cisplatin (CDDP) and HVJ-E in combination, CT-26 tumors; assay type: in vivo; settings: HVJ-E alone, CDDP 1 mg/kg, physiological saline
Description: CT-26 mouse colon cancer cells were intradermally inoculated into the backs of BALB/c mice at 5×10^6 cells/head. Five days after the inoculation, treatment with HVJ-E and CDDP was started in the following animal groups. For each animal group, tumor volume was calculated as major diameter×minor diameter×minor diameter/2.
• #1: Physiological saline group • #2: HVJ-E alone • #3: CDDP 1 mg/kg • #4: CDDP 3 mg/kg • #5: CDDP 1 mg/kg+HVJ-E (5,000 HAU) • #6: CDDP 3 mg/kg+HVJ-E (5,000 HAU) • (n=5 or 6 for each group) (Results)

## COc1cccc2c1C(=O)c1c(O)c3c(c(O)c1C2=O)C[C@@](O)(C(=O)CO)C[C@@H]3O[C@H]1C[C@H](N)[C@H](O)[C@H](C)O1 [ADM, adriamycin]
MB49 cells [1]; ADM alone (20 or 100 μg)
  tumor suppressing effect: a tumor suppressing effect was observed
MB49 cells [1]; ADM alone (20 or 100 μg), tumor diameter 7-8 mm
  tumor eradication: eradication was not observed
MB49 cells [1]; G2: ADM 20 μg x3 into tumor, Day 0
  tumor volume: 128.4 mm^3
MB49 cells [1]; G2: ADM 20 μg x3 into tumor, Day 5
  tumor volume: 303.2 mm^3
MB49 cells [1]; G2: ADM 20 μg x3 into tumor, Day 7
  tumor volume: 330 mm^3
MB49 cells [1]; G2: ADM 20 μg x3 into tumor, Day 9
  tumor volume: 324.9 mm^3
MB49 cells [1]; G2: ADM 20 μg x3 into tumor, Day 12
  tumor volume: 331.74 mm^3
MB49 cells [1]; G2: ADM 20 μg x3 into tumor, Day 15
  tumor volume: 443.36 mm^3
MB49 cells [1]; G2: ADM 20 μg x3 into tumor, Day 19
  tumor volume: 773.88 mm^3
MB49 cells [1]; G2: ADM 20 μg x3 into tumor, Day 21
  tumor volume: 1022.48 mm^3
MB49 cells [1]; G3: ADM 100 μg x3 into tumor, Day 0
  tumor volume: 119 mm^3
MB49 cells [1]; G3: ADM 100 μg x3 into tumor, Day 5
  tumor volume: 285.8 mm^3
MB49 cells [1]; G3: ADM 100 μg x3 into tumor, Day 7
  tumor volume: 291.2 mm^3
MB49 cells [1]; G3: ADM 100 μg x3 into tumor, Day 9
  tumor volume: 333.9 mm^3
MB49 cells [1]; G3: ADM 100 μg x3 into tumor, Day 12
  tumor volume: 426.88 mm^3
MB49 cells [1]; G3: ADM 100 μg x3 into tumor, Day 15
  tumor volume: 450.76 mm^3
MB49 cells [1]; G3: ADM 100 μg x3 into tumor, Day 19
  tumor volume: 989.52 mm^3
MB49 cells [1]; G3: ADM 100 μg x3 into tumor, Day 21
  tumor volume: 1220.44 mm^3
[2]; ADM 0.004 μg/ml
  survival rate: 60.1%
[2]; ADM 0.008 μg/ml
  survival rate: 54%
[2]; ADM 0.063 μg/ml
  survival rate: 34.9%
[2]; ADM 0.125 μg/ml
  survival rate: 27.6%
[2]; ADM 0.25 μg/ml
  survival rate: 22.6%
[2]; ADM 0.5 μg/ml
  survival rate: 17.2%
[2]; ADM 1 μg/ml
  survival rate: 11.7%
[2]; ADM 2 μg/ml
  survival rate: 6.7%
[2]; MB49 cells, WST-8
  LD50 concentration: 0.008 µg/mL
  LD90 concentration: 1 µg/mL
MB49 cells [3]; ADM 0.008 μg/ml, with or without HVJ-E 5000 HAU (Groups 1, 2)
  infiltration of MB49 cells into the bladder: all animals showed evidence of infiltration of MB49 cells
MB49 cells [3]; Group 3: ADM 1 μg/ml
  animals in which infiltration of MB49 cells could not be prevented: 80%

## [NH2][Pt]([NH2])([Cl])[Cl] [CDDP, cisplatin]
[4]
  mean tumor volume: 387 mm^3
  mean tumor volume relative to control group as 100%: 23.2%
CT-26 cells
  % specific Cr release: 12.9%
CT-26 tumor tissue
  pathological findings in tumor tissue (HE staining): tumor cell necrotic signs were observed over a wide range of the tumor tissue
[5]; cell-derived HVJ-E study
  order of regression effect: greater in the order of the physiological saline group, HVJ-E-alone administration group, and CDDP 1 mg/kg administration group
[5]; egg-derived HVJ-E study
  tumor volume compared among groups: no major difference was observed

## bleomycin hydrochloride [BLM]
[4]
  mean tumor volume: 1303 mm^3
  mean tumor volume relative to control group as 100%: 80.0%
CT-26 tumor tissue
  pathological findings in tumor tissue (HE staining): Generally similar findings
